Assay results reported in patent publication US20040156869A1, “2-substituted quinazolin-4-ylamine analogues” (Neurogen Corporation, priority 2002, published 2004).

Target: human capsaicin receptor (VR1) (Homo sapiens, UniProt Q8NER1)
Test: Capsaicin receptor binding assay ([3H]RTX competition, VR1-transfected HEK293 membranes)
Conditions: not given

Chain of human capsaicin receptor (VR1) (Q8NER1 whole entry): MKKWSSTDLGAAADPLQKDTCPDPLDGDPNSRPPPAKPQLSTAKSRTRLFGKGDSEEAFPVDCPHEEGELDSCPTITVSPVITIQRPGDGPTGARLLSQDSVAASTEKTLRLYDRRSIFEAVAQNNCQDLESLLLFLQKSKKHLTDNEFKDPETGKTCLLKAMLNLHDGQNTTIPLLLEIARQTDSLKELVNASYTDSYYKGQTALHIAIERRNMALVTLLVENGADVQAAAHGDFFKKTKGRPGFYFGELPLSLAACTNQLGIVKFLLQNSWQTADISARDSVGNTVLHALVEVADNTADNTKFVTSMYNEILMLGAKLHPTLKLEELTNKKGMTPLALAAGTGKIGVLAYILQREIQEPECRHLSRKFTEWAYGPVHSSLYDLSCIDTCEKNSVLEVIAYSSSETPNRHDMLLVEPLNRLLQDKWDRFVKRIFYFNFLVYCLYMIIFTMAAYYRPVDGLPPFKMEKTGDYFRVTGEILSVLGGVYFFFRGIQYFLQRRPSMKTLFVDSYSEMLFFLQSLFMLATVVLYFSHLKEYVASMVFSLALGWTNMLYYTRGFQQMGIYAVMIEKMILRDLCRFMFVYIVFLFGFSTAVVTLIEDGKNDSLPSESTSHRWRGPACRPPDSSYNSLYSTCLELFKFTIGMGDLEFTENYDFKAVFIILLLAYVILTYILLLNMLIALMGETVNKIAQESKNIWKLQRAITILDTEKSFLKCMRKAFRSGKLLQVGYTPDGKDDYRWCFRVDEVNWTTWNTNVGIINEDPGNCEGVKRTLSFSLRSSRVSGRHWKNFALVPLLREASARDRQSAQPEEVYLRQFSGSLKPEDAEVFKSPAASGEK

| SMILES | Ki [nM] |
| --- | --- |
| CS(=O)(=O)N1CCC(c2nc(Nc3ccc(C(F)(F)F)cc3)c3ccc(-c4ncccc4C(F)(F)F)cc3n2)CC1 [Compound 703, [2-(1-Methanesulfonyl-piperidin-4-yl)-7-(3-trifluoromethyl-pyridin-2-yl)-quinazolin-4-yl]-(4-trifluoromethyl-phenyl)-amine] | < 1000 |
| CCOC(=O)C1CCCN(CCc2nc(Nc3ccc(C(F)(F)F)cc3)c3ccc(-c4ncccc4C(F)(F)F)cc3n2)C1 (stereo not drawn) [Compound 590, 1-{2-[4-(4-Trifluoromethyl-phenylamino)-7-(3-trifluoromethyl-pyridin-2-yl)-quinazolin-2-yl]-ethyl}-piperidine-3-carboxylic acid ethyl ester] | < 1000 |
| CCC(C)c1ccc(Nc2nc(CN3C[C@@H](C)O[C@@H](C)C3)nc3cc(-c4ncccc4Cl)ccc23)cc1 (stereo partly drawn) [Compound 680, (4-sec-Butyl-phenyl)-[7-(3-chloro-pyridin-2-yl)-2-(2,6-dimethyl-morpholin-4-ylmethyl)-quinazolin-4-yl]-amine (cis)] | < 1000 |
| FC(F)(F)c1ccc(Nc2nc(CCCOCc3ccccc3)nc3cc(-c4ncccc4C(F)(F)F)ccc23)cc1 [Compound 12, [2-(3-Benzyloxy-propyl)-7-(3-trifluoromethyl-pyridin-2-yl)-quinazolin-4-yl]-(4-trifluoromethyl-phenyl)-amine] | < 1000 |
| COCc1nc(Nc2ccc(C(C)C)cc2)c2ccc(-c3ncccc3C(F)(F)F)nc2n1 [Compound 108, (4-Isopropyl-phenyl)-[2-methoxymethyl-7-(3-trifluoromethyl-pyridin-2-yl)-pyrido[2,3-d]pyrimidin-4-yl]-amine] | < 1000 |
| O=S(=O)(c1ccc(Nc2nc(CN3CCOCC3)nc3cc(-c4ncccc4C(F)(F)F)ccc23)cc1)C(F)(F)F [Compound 580, [2-Morpholin-4-ylmethyl-7-(3-trifluoromethyl-pyridin-2-yl)-quinazolin-4-yl]-(4-trifluoromethanesulfonyl-phenyl)-amine] | < 1000 |
| COCCN(CCOC)Cc1nc(Nc2ccc(C(F)(F)F)cc2)c2ncc(-c3ncccc3C(F)(F)F)cc2n1 [Compound 670, [2-{[Bis-(2-methoxy-ethyl)-amino]-methyl}-7-(3-trifluoromethyl-pyridin-2-yl)-pyrido[3,2-d]pyrimidin-4-yl]-(4-trifluoromethyl-phenyl)-amine] | < 1000 |
| CCCN(Cc1nc(Nc2ccc(C(F)(F)F)cc2)c2ncc(-c3ncccc3C(F)(F)F)cc2n1)CC1CC1 [Compound 665, [2-[(Cyclopropylmethyl-propyl-amino)-methyl]-7-(3-trifluoromethyl-pyridin-2-yl)-pyrido[3,2-d]pyrimidin-4-yl]-(4-trifluoromethyl-phenyl)-amine] | < 1000 |
| COCCc1nc(Nc2ccc(C(C)(C)C)nc2)c2ccc(-c3ncccc3C(F)(F)F)cc2n1 [Compound 49, (6-tert-Butyl-pyridin-3-yl)-[2-(2-methoxy-ethyl)-7-(3-trifluoromethyl-pyridin-2-yl)-quinazolin-4-yl]-amine] | < 1000 |
| COCc1nc(Nc2ccc(C(F)(F)F)cc2)c2ccc(-c3ncccc3C)nc2n1 [Compound 88, [2-Methoxymethyl-7-(3-methyl-pyridin-2-yl)-pyrido[2,3-d]pyrimidin-4-yl]-(4-trifluoromethyl-phenyl)-amine] | < 1000 |
| CC(C)c1ccc(Nc2nc(CO)nc3cc(-c4ncccc4C(F)(F)F)ccc23)cc1 [Compound 156, [4-(4-Isopropyl-phenylamino)-7-(3-trifluoromethyl-pyridin-2-yl)-quinazolin-2-yl]-methanol] | < 1000 |
| C[C@@H]1CN(Cc2nc(Nc3ccc(C(F)(F)F)nc3)c3ccc(-c4ncccc4Cl)cc3n2)C[C@H](C)O1 [Compound 599, [7-(3-Chloro-pyridin-2-yl)-2-(2,6-dimethyl-morpholin-4-ylmethyl)-quinazolin-4-yl]-(6-trifluoromethyl-pyridin-3-yl)-amine (cis)] | < 1000 |
| COCc1nc(Nc2ccc(C(C)(C)C#N)cc2)c2ccc(-c3ncccc3C(F)(F)F)nc2n1 [Compound 290, 2-{4-[2-Methoxymethyl-7-(3-trifluoromethyl-pyridin-2-yl)-pyrido[2,3-d]pyrimidin-4-ylamino]-phenyl}-2-methyl-propionitrile] | < 1000 |
| CN(C)CCCN(C)Cc1nc(Nc2ccc(C(F)(F)F)cc2)c2ccc(-c3ncccc3C(F)(F)F)cc2n1 [Compound 706, N,N,N′-Trimethyl-N′-[4-(4-trifluoromethyl-phenylamino)-7-(3-trifluoromethyl-pyridin-2-yl)-quinazolin-2-ylmethyl]-propane-1,3-diamine] | < 1000 |
| OC1CCCN(Cc2nc(Nc3ccc(C(F)(F)F)nc3)c3ccc(-c4ncccc4C(F)(F)F)cc3n2)C1 (stereo not drawn) [Compound 486, 1-[7-(3-Trifluoromethyl-pyridin-2-yl)-4-(6-trifluoromethyl-pyridin-3-ylamino)-quinazolin-2-ylmethyl]-piperidin-3-ol] | < 1000 |
| CN1C(C)(C)CC(NC(=O)c2nc(Nc3ccc(C(F)(F)F)cc3)c3ccc(-c4ncccc4C(F)(F)F)nc3n2)CC1(C)C [Compound 447, 4-(4-Trifluoromethyl-phenylamino)-7-(3-trifluoromethyl-pyridin-2-yl)-pyrido[2,3-d]pyrimidine-2-carboxylic acid (1,2,2,6,6-pentamethyl-piperidin-4-yl)-amide] | < 1000 |
| CCCN(CCC)Cc1nc(Nc2ccc(C(F)(F)F)nc2)c2ccc(-c3ncccc3C(F)(F)F)cc2n1 [Compound 373, [2-Dipropylaminomethyl-7-(3-trifluoromethyl-pyridin-2-yl)-quinazolin-4-yl]-(6-trifluoromethyl-pyridin-3-yl)-amine] | < 1000 |
| COCCN(CCOC)C(=O)c1nc(Nc2ccc(C(F)(F)F)cc2)c2ccc(-c3ncccc3C(F)(F)F)nc2n1 [Compound 469, 4-(4-Trifluoromethyl-phenylamino)-7-(3-trifluoromethyl-pyridin-2-yl)-pyrido[2,3-d]pyrimidine-2-carboxylic acid bis-(2-methoxy-ethyl)-amide] | < 1000 |
| FC(F)(F)c1ccc(Nc2nc(-c3ccc(N4CCCC4)nc3)nc3cc(-c4ncccc4C(F)(F)F)ccc23)cc1 [Compound 543, [2-(6-Pyrrolidin-1-yl-pyridin-3-yl)-7-(3-trifluoromethyl-pyridin-2-yl)-quinazolin-4-yl]-(4-trifluoromethyl-phenyl)-amine] | < 1000 |
| FC(F)(F)c1ccc(Nc2nc(CN3CCCCCC3)nc3cc(-c4ncccc4C(F)(F)F)ccc23)cn1 [Compound 361, [2-Azepan-1-ylmethyl-7-(3-trifluoromethyl-pyridin-2-yl)-quinazolin-4-yl]-(6-trifluoromethyl-pyridin-3-yl)-amine] | < 1000 |
| C[C@@H]1CN(Cc2nc(Nc3ccc(C(C)(C)C)cc3)c3ccc(-c4ncccc4C(F)(F)F)cc3n2)CCO1 [Compound 682, (R)-(4-tert-Butyl-phenyl)-[2-(2-methyl-morpholin-4-ylmethyl)-7-(3-trifluoromethyl-pyridin-2-yl)-quinazolin-4-yl]-amine] | < 1000 |
| CCOC(=O)C1CCN(Cc2nc(Nc3ccc(C(F)(F)F)cc3)c3ccc(-c4ncccc4C(F)(F)F)cc3n2)CC1 [Compound 503, 1-[4-(4-Trifluoromethyl-phenylamino)-7-(3-trifluoromethyl-pyridin-2-yl)-quinazolin-2-ylmethyl]-piper idine-4-carboxylic acid ethyl ester] | < 1000 |
| CCN(CC)CCNC(=O)c1nc(Nc2ccc(C(F)(F)F)cc2)c2ccc(-c3ncccc3C(F)(F)F)nc2n1 [Compound 438, 4-(4-Trifluoromethyl-phenylamino)-7-(3-trifluoromethyl-pyridin-2-yl)-pyrido[2,3-d]pyrimidine-2-carboxylic acid (2-diethylamino-ethyl)-amide] | < 1000 |
| O=C(O)CCNC(=O)c1nc(Nc2ccc(C(F)(F)F)cc2)c2ccc(-c3ncccc3C(F)(F)F)nc2n1 [Compound 765, 3-{[4-(4-Trifluoromethyl-phenylamino)-7-(3-trifluoromethyl-pyridin-2-yl)-pyrido[2,3-d]pyrimidine-2-carbonyl]-amino}-propionic acid] | < 1000 |
| FC(F)(F)c1ccc(Nc2nc(COC3CCOCC3)nc3cc(-c4ncccc4C(F)(F)F)ccc23)cn1 [Compound 154, [2-(Tetrahydro-pyran-4-yloxymethyl)-7-(3-trifluoromethyl-pyridin-2-yl)-quinazolin-4-yl]-(6-trifluoromethyl-pyridin-3-yl)-amine] | < 1000 |
| COCc1nc(Nc2ccc(C(F)(F)F)cc2)c2ccc(-c3ncccc3C(F)(F)F)nc2n1 [Compound 109, [2-Methoxymethyl-7-(3-trifluoromethyl-pyridin-2-yl)-pyrido[2,3-d]pyrimidin-4-yl]-(4-trifluoromethyl-phenyl)-amine] | < 1000 |
| C[C@@H]1CN(Cc2nc(Nc3ccc(C(C)(C)C)cc3)c3ncc(-c4ncccc4Cl)cc3n2)C[C@H](C)O1 [Compound 633, (4-tert-Butyl-phenyl)-[7-(3-chloro-pyridin-2-yl)-2-(2,6-dimethyl-morpholin-4-ylmethyl)-pyrido[3,2-d]pyrimidin-4-yl]-amine (cis)] | < 1000 |
| O=C(OCc1ccccc1)N1CCC[C@H]1c1nc(Nc2ccc(C(F)(F)F)cc2)c2ccc(-c3ncccc3C(F)(F)F)cc2n1 [Compound 656, (S)-2-[4-(4-Trifluoromethyl-phenylamino)-7-(3-trifluoromethyl-pyridin-2-yl)-quinazolin-2-yl]-pyrrolidine-1-carboxylic acid benzyl ester] | < 1000 |
| COCc1nc(Nc2ccc(C(C)(C)C)nc2)c2ccc(-c3ncccc3C)nc2n1 [Compound 200, (6-tert-Butyl-pyridin-3-yl)-[2-methoxymethyl-7-(3-methyl-pyridin-2-yl)-pyrido[2,3-d]pyrimidin-4-yl]-amine] | < 1000 |

Same assay, conditions: Table III; * = Ki 1 micromolar or less

| SMILES | Ki [nM] |
| --- | --- |
| CCOC(=O)C1CCN(CCc2nc(Nc3ccc(C(F)(F)F)cc3)c3ccc(-c4ncccc4C(F)(F)F)cc3n2)CC1 [Compound 736, 1-{2-[4-(4-Trifluoromethyl-phenylamino)-7-(3-trifluoromethyl-pyridin-2-yl)-quinazolin-2-yl]-ethyl}-piperidine-4-carboxylic acid ethyl ester] | < 1000 |
